Laboratory results as given in ChEMBL document CHEMBL1201862, “PubChem BioAssay data set” (2004).
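A five-concentration, 48-hour dose response in 96-well plates underlies each endpoint, interpolated linearly between surrounding concentrations. GI50 is the concentration that inhibits growth by half.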 Activity calls are given as the source filed them. Cut-off read from the data, not from the text of the source: active = GI50 up to about 1.1 µM and inactive = higher.

Tests used:
Test in all cases: DTP human tumour cell line panel, 48 h
[1] = tested on: K562
[2] = tested on: SW-620
[3] = tested on: SF-295
[4] = tested on: SK-MEL-28
[5] = tested on: HL-60
[6] = tested on: OVCAR-8
[7] = tested on: UACC-62
[8] = tested on: SK-MEL-5
[9] = tested on: M19-MEL
[10] = tested on: HOP-92
[11] = tested on: HOP-62
[12] = tested on: NCI-H460
[13] = tested on: CAKI-1
[14] = tested on: DMS-114
[15] = tested on: SN12C
[16] = tested on: RXF 393
[17] = tested on: XF498
[18] = tested on: U-251
[19] = tested on: UACC-257
[20] = tested on: EKVX

Measured: GI50

CCC1OC(=O)C(C)C(OC2CC(C)(O)C(O)C(C)O2)C(C)C(O)C(C)(O)CC(C)C(=O)C(C)C(O)C1C (stereo not given)
inactive: [1] > 300 µM | [2] > 300 µM | [3] > 300 µM | [4] > 300 µM | [5] > 300 µM | [6] > 300 µM | [7] > 300 µM | [8] > 300 µM | [9] > 300 µM | [10] 30 µM | [11] 299 µM | [12] > 300 µM | [13] > 300 µM | [14] > 300 µM | [15] > 300 µM | [16] > 300 µM | [17] > 300 µM | [18] > 300 µM | [19] > 300 µM | [20] > 300 µM

CCC/C=C/C=C\C(=O)O[C@@H]1[C@@H](C)[C@]2(O)[C@@H]3C=C(C)C(=O)[C@H]3CC(COC(C)=O)=C[C@H]2[C@@H]2C(C)(C)[C@]12OC(C)=O
inactive: [1] 2.49 µM | [2] 11.2 µM | [3] 6.64 µM | [4] 39.4 µM | [5] 2.33 µM | [6] 40.7 µM | [7] 35.2 µM | [8] 16.4 µM | [9] 32.2 µM | [10] 43.8 µM | [11] 1.89 µM | [12] 1.61 µM | [13] 26.1 µM | [14] 45.1 µM | [15] 40.3 µM | [16] 47.5 µM | [17] 7.29 µM | [18] 17.6 µM | [19] 42.9 µM | [20] 49.9 µM
